How the values were obtained:
Histamine H4 receptor [1] = target: T1, Histamine H4 receptor (Homo sapiens, UniProt Q9H3N8); experiment: Displacement of [3H]histamine from human recombinant histamine H4 receptor
Histamine H4 receptor [2] = target: T1, Histamine H4 receptor; experiment: Agonist activity at human recombinant histamine H4 receptor expressed in SK-N-MC cells assessed as effect on forskolin-stimulated cAMP-mediated reporter gene activity; format: functional, cell-based
Histamine H4 receptor [3] = target: T1, Histamine H4 receptor; experiment: Antagonist activity at human recombinant histamine H4 receptor expressed in SK-N-MC cells assessed as inhibition of forskolin-stimulated cAMP-mediated reporter gene activity; format: functional, cell-based; details: read-out: pA2 (converted)

T1 sequence (Q9H3N8 whole entry): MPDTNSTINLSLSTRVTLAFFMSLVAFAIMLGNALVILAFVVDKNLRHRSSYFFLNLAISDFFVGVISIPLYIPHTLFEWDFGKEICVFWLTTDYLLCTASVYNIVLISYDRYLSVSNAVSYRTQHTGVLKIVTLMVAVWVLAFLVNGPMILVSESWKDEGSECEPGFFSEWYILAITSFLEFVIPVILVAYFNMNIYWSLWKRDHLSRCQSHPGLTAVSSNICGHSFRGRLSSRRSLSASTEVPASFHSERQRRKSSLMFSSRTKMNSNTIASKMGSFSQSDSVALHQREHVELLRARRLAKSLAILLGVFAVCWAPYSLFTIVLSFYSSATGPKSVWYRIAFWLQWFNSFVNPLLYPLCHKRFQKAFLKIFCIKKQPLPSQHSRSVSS

SMILES	Ki (Histamine H4 receptor [1]) [nM]	EC50 (Histamine H4 receptor [2]) [nM]	Kb (Histamine H4 receptor [3]) [nM]
CN[C@@H]1CCN(c2ccnc(NC(C)C)n2)C1	8	25	–
CN[C@@H]1CCN(c2ccnc(NC(C)C)c2)C1	–	3160	–
CN1CCN(c2ccnc(-c3ccsc3)c2)CC1	21	–	–
CN[C@@H]1CCN(c2ccnc(-c3ccsc3)c2)C1	216	–	–
CN1CCN(c2ccnc(N3CCCCC3)c2)CC1	142	–	–
CN[C@@H]1CCN(c2ccnc(N3CCCCC3)c2)C1	97	–	–
CCCCNc1cc(N2CCN(C)CC2)ccn1	176	–	–
CCCCNc1cc(N2CC[C@@H](NC)C2)ccn1	7	48	–
CCCCNc1cc(N2CC[C@H](NC)C2)ccn1	109	–	–
CN1CCN(c2ccnc(NC3CCCC3)c2)CC1	16	–	–
CN[C@@H]1CCN(c2ccnc(NC3CC4CCC3C4)c2)C1 (stereo partly specified)	–	> 10000	6.31
CN[C@H]1CCN(c2ccnc(NC3CC4CCC3C4)c2)C1 (stereo partly specified)	6	> 10000	–
CC(C)Nc1nccc(N2CCN(C)CC2)n1	117	112	–
CN[C@H]1CCN(c2ccnc(NC(C)C)n2)C1	118	–	–
CC(C)CNc1nccc(N2CCN(C)CC2)n1	–	84	–
CCCCNc1nccc(N2CCN(C)CC2)n1	55	91	–
CCCCNc1nccc(N2CC[C@@H](NC)C2)n1	3	4	–
CN1CCN(c2ccnc(NC3CCCC3)n2)CC1	63	75	–
CN1CCN(c2ccnc(NC3CC4CCC3C4)n2)CC1 (stereo unspecified)	–	20	–
CN[C@@H]1CCN(c2ccnc(NC3CC4CCC3C4)n2)C1 (stereo partly specified)	0.8	3160	79.4
CN[C@H]1CCN(c2ccnc(NC3CC4CCC3C4)n2)C1 (stereo partly specified)	8	> 10000	–
CC(C)CNc1cc(N2CCN(C)CC2)cnn1	10000	–	–
CN[C@@H]1CCN(c2cnnc(NCC(C)C)c2)C1	55	3160	–
CN[C@H]1CCN(c2cnnc(NCC(C)C)c2)C1	389	–	–
CN[C@@H]1CCN(c2cnnc(NC3CCCC3)c2)C1	6	–	10
CN[C@H]1CCN(c2cnnc(NC3CCCC3)c2)C1	240	–	–
CN1CCN(c2cnnc(NC3CC4CCC3C4)c2)CC1 (stereo unspecified)	365	–	–
CC(C)c1cc(N2CC[C@@H](N)C2)nc(N)n1 [JNJ-39758979]	12	–	–

— ChEMBL document CHEMBL3393002, “Diaminopyrimidines, diaminopyridines and diaminopyridazines as histamine H4 receptor modulators” (Bioorg Med Chem Lett, 2015)
